Experimental data: patent US10799501B2, “Combination of an inhibitor of PARP with an inhibitor of GSK-3 or DOT1L” (King's College London, priority 2015, dated 2020)

Columns and labels:
[1] = test system: PML-RARα primary human leukemia cells; test: In vitro treatment of primary AML patient cells carrying PML-RARα (APL); assay type: cell-based
Procedure: (§1) NB4-LR2 and THP1 cell lines (kindly provided by Dr Arthur Zelent and Professor Mel Greaves respectively) were cultured in RPMI (Invitrogen) supplemented with 10% selected FBS (R10), 2 mM L-Glutamine. Kasumi cell line (kindly provided by Dr Olaf Heidenreich) was cultured in RPMI-Hepes modified (Sigma) supplemented with 20% selected FBS and 2 mM L-[…]). Cell lines were validated by qPCR for their respective oncogenes. NIH3T3 and GP2 cell line was cultured in DMEM (Invitrogen) supplemented with 10% selected FBS and 2 mM L-Glutamine. Human primary AML cells were cultured in IMEM (Invitrogen) supplemented with […], 2 mM L-Glutamine, 10 ng/mL each of human cytokines, IL3, IL6, SCF, FLT3 ligand, and TPO. Cells were kept at 37° C. and 5% CO2. Use of human primary cells was approved by King's College London committee and consents of the patients were obtained. […] Colonies were scored 6-7 days after plating. […] Cells were counted in at least 5 fields for each slide, for a total of over 100 cells per condition. […] Cells were then washed in PBS and the differentiated cells were indicated by the deposition of dark blue insoluble formazan (NBT positive cells) and the percentage of differentiated cells were counted under microscopy. At least 200 cells were counted in most of the cases.

[2] = test system: AML1-ETO primary human leukemia cells; test: In vitro treatment of primary AML patient cells carrying AML1-ETO; assay type: cell-based
Procedure: as §1

ovarian cancer = conditions: untargeted population; cited from earlier work
[3] = primary patient cells treated 5 days

O=C(c1cc(Cc2n[nH]c(=O)c3ccccc23)ccc1F)N1CCN(C(=O)C2CC2)CC1 [Olaparib, 4-[(3-[(4-cyclopropylcarbonyl)piperazin-4-yl]carbonyl)-4-fluorophenyl]methyl(2H)-phthalazin-1-one]
differentiation of primary AML cells ([1]; 1 μM Olaparib for 5 days): increased differentiation | in vitro PARPi response (sensitivity) [1, 3]: highly sensitive | differentiation of primary AML cells ([2]; 1 μM Olaparib for 5 days): increased differentiation | in vitro PARPi response (sensitivity) [2, 3]: highly sensitive | overall survival benefit compared to chemotherapy (ovarian cancer): failed to show overall survival benefit
